The text below walks through data of patent US10278942B2 (PELOTON THERAPEUTICS, INC., priority 2015, dated 2019).

The EC50 is the concentration giving half of the maximal effect.

Structures are written as SMILES. Like-named read-outs stand apart in the source and are kept apart here.

This experiment deals with 786-O-Hif-Luc cells. Put plainly: Luciferase Assay (HIF responsive elements reporter).
[1] abbreviates: read-out: Mean Luciferase EC50 (nM), 786-O-Hif-Luc cells.
The mark [2] stands for this setting: read-out: Mean Luciferase EC50 (nM).

Experimental: A pool of infected cells were then selected against 2 μg/mL of puromycin (P8833, Sigma) for 10 days followed by limited dilution to select single clones. […] Each concentration was tested in triplicate. After about 24 hours, luciferase activity was determined using ONE-Glo Luciferase Assay Reagent (E6110, Promega) following the manufacturer's recommended procedure. EC50 were calculated using Dotmatics software.

Regarding `O=S(=O)(CF)c1ccc(Oc2cc(F)cc(Cl)c2)c2c1[C@H](O)CC2` [Compound 61], the 50% effective concentration (EC50) under setting [1] was in the range of 50 to 249 nM.
Still for that read-out and setting: the figure for `CS(=O)(=O)c1ccc(Oc2cc(F)cc(C#N)c2)c2c1[C@H](O)[C@H](F)[C@H]2F` [Compound 294] is 250 to 1000 nM; for `CC1(C#N)CC(Oc2ccc(S(C)(=O)=O)c3c2[C@@H](F)C(F)(F)[C@H]3O)C1` (stereo partly shown) [Compound 766] it is 250 to 1000 nM; for `N#Cc1cccc(Oc2ccc(S(=O)(=O)C(F)F)c(CO)c2Cl)c1` [Compound 43] it is 250 to 1000 nM.
For `CS(=O)(=O)c1ccc(Oc2cc(F)cc(C#N)c2)c2c1[C@H](O)[C@@H](F)C2` [Compound 271], the EC50 under setting [2] lay in the range of 250 to 1000 nM.
On the same count and under the same terms, the figure for `CNS(=O)(=O)c1ccc(Oc2cc(F)cc(F)c2)c2c1[C@H](O)C(F)(F)C2` [Compound 251] is 50 to 249 nM.
For `N#Cc1cc(F)cc(Oc2ccc(S(=O)(=O)C(F)F)c3c2CC(F)(F)[C@H]3O)c1` [Compound 15, 3-[(1S)-7-(difluoromethylsulfonyl)-2,2-difluoro-1-hydroxy-indan-4-yl]oxy-5-fluoro-benzonitrile], the EC50 under setting [1] was below 50 nM.
With `N#Cc1cc(Cl)cc(Oc2ccc(S(=O)(=O)CF)c3c2CC(F)(F)[C@H]3O)c1` [Compound 167], under setting [2], the concentration giving a half-maximal response (EC50) is below 50 nM.
Same read-out and setting: the figure for `[2H]C([2H])([2H])S(=O)(=O)c1ccc(Oc2cc(F)cc(C#N)c2)c2c1[C@]([2H])(O)C(F)(F)C2` [Compound 229] is below 50 nM.
Turning to `CC(C)Oc1ccc2c(c1C#N)C(C)(O)C(F)(F)S2(=O)=O` (stereo not shown) [Compound 456], under setting [1], the EC50 was above 1000 nM.
On to `CCS(=O)(=O)c1ccc(Oc2cc(F)cc(C#N)c2)c2c1[C@H](O)C(F)(F)C2` [Compound 206], for which the EC50 under setting [2] lay in the range of 50 to 249 nM.
Turning to `N#Cc1cc(F)cc(Oc2ccc(S(N)(=O)=O)c3c2[C@@H](F)C(F)(F)[C@H]3O)c1` [Compound 338], the concentration giving a half-maximal response (EC50) under setting [2] is below 50 nM.
Take `CS(=O)(=O)c1ccc(Oc2cc(F)cc(C#N)c2)c2c1[C@H](O)CC2` [Compound 287]: under setting [1], the EC50 is 250 to 1000 nM.
Turning to `C[C@H]1C[C@@H](O)c2c(S(=O)(=O)C(F)F)ccc(Oc3cc(F)cc(Cl)c3)c21` [Compound 7a], the concentration for a half-maximal effect (EC50) under setting [2] lay within 250 to 1000 nM.
Still for that read-out and setting: to `N#Cc1cc(F)cc(Oc2ccc(S(=O)(=O)C(F)(F)F)c3c2CC[C@H]3O)c1` [Compound 57] belongs 50 to 249 nM.
In the case of `O=S(=O)(c1ccc(Oc2ccc(F)c3[nH]ncc23)c2c1[C@H](O)C(F)(F)C2)C(F)(F)F` [Compound 266], the EC50 under setting [1] is below 50 nM.
With `CS(=O)(=O)c1ccc(Oc2cc(F)cc(C#N)c2)c2c1[C@@H](O)C(F)(F)C2` [Compound 226], the EC50 under setting [2] was above 1000 nM.
Regarding `O=S(=O)(c1ccc(Oc2ccc(F)c3[nH]ncc23)c2c1C(O)C(F)(F)C2)C(F)(F)F` (stereo not shown) [Compound 241], the EC50 under setting [1] was in the range of 50 to 249 nM.
Take `NS(=O)(=O)c1ccc(Oc2cc(F)cc(F)c2)c2c1[C@H](O)C(F)(F)C2` [Compound 256]: the concentration giving a half-maximal response (EC50) under setting [2] is below 50 nM.
For `N#CC1(COc2ccc3c(c2C(F)F)C(O)C(F)(F)S3(=O)=O)CC1` (stereo not shown) [Compound 455], under setting [1], the EC50 is above 1000 nM.
For `CNS(=O)(=O)c1ccc(Oc2cc(F)cc(C#N)c2)c2c1[C@H](O)C(F)(F)C2` [Compound 254], the EC50 under setting [2] was 50 to 249 nM.
The same measure, in the same setting: the figure for `CS(=O)(=O)c1ccc(Oc2cc(F)cc(C#N)c2)c2c1[C@H](O)C(F)(F)C2` [Compound 163, (S)-3-((2,2-Difluoro-1-hydroxy-7-(methylsulfonyl)-2,3-dihydro-1H-inden-4-yl)oxy)-5-fluorobenzonitrile] is below 50 nM; for `N#Cc1cccc(Oc2ccc(S(=O)(=O)C(F)F)c3c2CC[C@H]3O)c1` [Compound 156] it is 250 to 1000 nM.
For the compound `CS(=O)(=O)c1ccc(Oc2cc(F)cc(C#N)c2)c2c1[C@H](O)[C@H](F)C2` [Compound 231], the EC50 under setting [2] is below 50 nM.
Regarding `CS(=O)(=O)c1ccc(Oc2cc(F)cc(Cl)c2)c(C(F)F)c1CO` [Compound 54], the EC50 under setting [1] was 250 to 1000 nM.
Same read-out and setting: to `N[C@@H]1c2c(ccc(Oc3cc(F)cc(Br)c3)c2Br)S(=O)(=O)C1(F)F` [Compound 462] belongs 250 to 1000 nM.
Consider `CS(=O)(=O)c1ccc(Oc2cc(F)cc(C#N)c2)c2c1C(O)CC2` (stereo not shown) [Compound 222], for which the EC50 under setting [1] is above 1000 nM.
For the compound `N#Cc1cc(F)cc(Oc2ccc(S(N)(=O)=O)c3c2CC(F)(F)[C@H]3O)c1` [Compound 252], under setting [2], the EC50 fell in the range of 50 to 249 nM.
Turning to `N#Cc1cc(F)cc(Oc2ccc(S(=O)(=O)C(F)F)c3c2CC(F)(F)C3O)c1` (stereo not shown) [Compound 11], under setting [1], the EC50 was below 50 nM.
Consider `CS(=O)(=O)c1ccc(Oc2cc(F)cc(C#N)c2)c2c1[C@H](N)C(F)(F)C2` [Compound 165], for which the 50% effective concentration (EC50) under setting [2] fell in the range of 50 to 249 nM.
As to `O=[N+]([O-])c1ccc(Oc2cc(F)cc(Cl)c2)c2c1C(O)CC2` (stereo not shown) [Compound 255], the EC50 under setting [1] is above 1000 nM.
